Assay results published in PubChem BioAssay AID1963838 (Molecular Pharmacology Branch, DTP, NCI, 2024).

Tested on: 855422-203-R-J1-PDC complex spheroid viability
Test: Anticancer human tumor 855422-203-R-J1-PDC patient-derived bladder carcinoma cell line growth inhibition [POLQ]
Conditions: for IC50: curve of first compound; for viability, T/C: stronger effect = lower value
How it was run: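 Growth inhibition in 3D: complex spheroids (tumor PDC, HUVEC, MSC) treated with POLQ inhibitor combinations; where Cmax unknown, highest tested concentration 10 microM, except SN-38 at 1 microM.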

[1] = second compound 0.0316 µM, first compound 0.0316 µM
[2] = second compound 0.0316 µM, first compound 0.1 µM
[3] = second compound 0.1 µM, first compound 0.0316 µM
[4] = second compound 0.1 µM, first compound 0.1 µM
[5] = second compound 0.316 µM, first compound 0.0316 µM
[6] = second compound 0.316 µM, first compound 0.1 µM
[7] = second compound 1 µM, first compound 0.0316 µM
[8] = second compound 1 µM, first compound 0.1 µM
[9] = second compound 3.16 µM, first compound 0.0316 µM
[10] = second compound 3.16 µM, first compound 0.1 µM
[11] = second compound 10 µM, first compound 0.0316 µM
[12] = second compound 10 µM, first compound 0.1 µM
[13] = second compound 0.0316 µM, first compound 0.316 µM
[14] = second compound 0.0316 µM, first compound 1 µM
[15] = second compound 0.0316 µM, first compound 3.16 µM
[16] = second compound 0.0316 µM, first compound 10 µM
[17] = second compound 0.1 µM, first compound 0.316 µM
[18] = second compound 0.1 µM, first compound 1 µM
[19] = second compound 0.1 µM, first compound 3.16 µM
[20] = second compound 0.1 µM, first compound 10 µM
[21] = second compound 0.316 µM, first compound 0.316 µM
[22] = second compound 0.316 µM, first compound 1 µM
[23] = second compound 0.316 µM, first compound 3.16 µM
[24] = second compound 0.316 µM, first compound 10 µM
[25] = second compound 1 µM, first compound 0.316 µM
[26] = second compound 1 µM, first compound 1 µM
[27] = second compound 1 µM, first compound 3.16 µM
[28] = second compound 1 µM, first compound 10 µM
[29] = second compound 3.16 µM, first compound 0.316 µM
[30] = second compound 3.16 µM, first compound 1 µM
[31] = second compound 3.16 µM, first compound 3.16 µM
[32] = second compound 3.16 µM, first compound 10 µM
[33] = second compound 10 µM, first compound 0.316 µM
[34] = second compound 10 µM, first compound 1 µM
[35] = second compound 10 µM, first compound 3.16 µM
[36] = second compound 10 µM, first compound 10 µM
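Note: spheroids exposed to compounds for seven days before readout.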

Work on `CC[C@@]1(O)C(=O)OCc2c1cc1n(c2=O)Cc2cc3c(CN(C)C)c(O)ccc3nc2-1` + Nc1ccc(C#CCN(C(=O)Cc2ncc(C(F)(F)F)cc2C(F)(F)F)c2ccc(F)cc2)nn1 yielded an IC50 (second compound 0.0316 µM) of 57.2 nM, an IC50 (second compound 0.1 µM) of 66.7 nM and an IC50 (second compound 0.316 µM) of 62 nM. For the same compound, the IC50 (second compound 1 µM) was 59.7 nM, the IC50 (second compound 3.16 µM) was 66.4 nM and the IC50 (second compound 10 µM) was 64 nM. The viability, T/C (second compound 0.0316 µM, first compound 0.000316 µM) was 89.5%, the viability, T/C (second compound 0.0316 µM, first compound 0.001 µM) was 111% and the viability, T/C (second compound 0.0316 µM, first compound 0.00316 µM) was 101%. The viability, T/C (second compound 0.0316 µM, first compound 0.01 µM) was 89.6%, the viability, T/C [1] was 86.9% and the viability, T/C [2] was 16.9%. For the same compound, the viability, T/C (second compound 0.1 µM, first compound 0.000316 µM) was 83.8%, the viability, T/C (second compound 0.1 µM, first compound 0.001 µM) was 129% and the viability, T/C (second compound 0.1 µM, first compound 0.00316 µM) was 102%. The viability, T/C (second compound 0.1 µM, first compound 0.01 µM) was 98.4%, the viability, T/C [3] was 99.3% and the viability, T/C [4] was 23.3%. It also gave a viability, T/C (second compound 0.316 µM, first compound 0.000316 µM) of 91.8%, a viability, T/C (second compound 0.316 µM, first compound 0.001 µM) of 99% and a viability, T/C (second compound 0.316 µM, first compound 0.00316 µM) of 91.8%. The viability, T/C (second compound 0.316 µM, first compound 0.01 µM) was 101%, the viability, T/C [5] was 97.1% and the viability, T/C [6] was 17.1%. The viability, T/C (second compound 1 µM, first compound 0.000316 µM) was 94.6%, the viability, T/C (second compound 1 µM, first compound 0.001 µM) was 88.5% and the viability, T/C (second compound 1 µM, first compound 0.00316 µM) was 109%. It also gave a viability, T/C (second compound 1 µM, first compound 0.01 µM) of 114%, a viability, T/C [7] of 83% and a viability, T/C [8] of 23.1%. It also gave a viability, T/C (second compound 3.16 µM, first compound 0.000316 µM) of 92.8%, a viability, T/C (second compound 3.16 µM, first compound 0.001 µM) of 106% and a viability, T/C (second compound 3.16 µM, first compound 0.00316 µM) of 99.4%. The viability, T/C (second compound 3.16 µM, first compound 0.01 µM) was 117%, the viability, T/C [9] was 102% and the viability, T/C [10] was 21.3%. For the same compound, the viability, T/C (second compound 10 µM, first compound 0.000316 µM) was 98.7%, the viability, T/C (second compound 10 µM, first compound 0.001 µM) was 93.7% and the viability, T/C (second compound 10 µM, first compound 0.00316 µM) was 97%. For the same compound, the viability, T/C (second compound 10 µM, first compound 0.01 µM) was 100%, the viability, T/C [11] was 95.3% and the viability, T/C [12] was 21.2%.
Work on `COc1cc(C2c3cc4c(cc3C(OC3OC5COC(C)OC5C(O)C3O)C3COC(=O)C23)OCO4)cc(OC)c1O` (stereo unspecified) + Nc1ccc(C#CCN(C(=O)Cc2ncc(C(F)(F)F)cc2C(F)(F)F)c2ccc(F)cc2)nn1 yielded an IC50 (second compound 0.0316 µM) of 525 nM, an IC50 (second compound 0.1 µM) of 477 nM and an IC50 (second compound 0.316 µM) of 446 nM. For the same compound, the IC50 (second compound 1 µM) was 439 nM, the IC50 (second compound 3.16 µM) was 335 nM and the IC50 (second compound 10 µM) was 380 nM. For the same compound, the viability, T/C [1] was 120%, the viability, T/C [2] was 127% and the viability, T/C [13] was 78.5%. It also gave a viability, T/C [14] of 15%, a viability, T/C [15] of 10% and a viability, T/C [16] of 7.23%. The viability, T/C [3] was 108%, the viability, T/C [4] was 164% and the viability, T/C [17] was 71.5%. For the same compound, the viability, T/C [18] was 21%, the viability, T/C [19] was 8.67% and the viability, T/C [20] was 4.47%. The viability, T/C [5] was 94.4%, the viability, T/C [6] was 137% and the viability, T/C [21] was 66.1%. For the same compound, the viability, T/C [22] was 21.8%, the viability, T/C [23] was 10.4% and the viability, T/C [24] was 4.7%. For the same compound, the viability, T/C [7] was 92.2%, the viability, T/C [8] was 141% and the viability, T/C [25] was 64.8%. The viability, T/C [26] was 23.5%, the viability, T/C [27] was 10.1% and the viability, T/C [28] was 4.86%. It also gave a viability, T/C [9] of 99.3%, a viability, T/C [10] of 135% and a viability, T/C [29] of 52%. The viability, T/C [30] was 20.5%, the viability, T/C [31] was 10.7% and the viability, T/C [32] was 4.56%. For the same compound, the viability, T/C [11] was 105%, the viability, T/C [12] was 114% and the viability, T/C [33] was 56.5%. It also gave a viability, T/C [34] of 19.5%, a viability, T/C [35] of 11.1% and a viability, T/C [36] of 5.88%.
Compound `O=c1[nH]cc(F)c(=O)[nH]1` + Nc1ccc(C#CCN(C(=O)Cc2ncc(C(F)(F)F)cc2C(F)(F)F)c2ccc(F)cc2)nn1 has an IC50 (second compound 0.0316 µM) of 2450 nM, an IC50 (second compound 0.1 µM) of 2160 nM and an IC50 (second compound 0.316 µM) of 3000 nM. The IC50 (second compound 1 µM) was 2420 nM, the IC50 (second compound 3.16 µM) was 3060 nM and the IC50 (second compound 10 µM) was 2750 nM. For the same compound, the viability, T/C [1] was 118%, the viability, T/C [2] was 110% and the viability, T/C [13] was 160%. For the same compound, the viability, T/C [14] was 65.3%, the viability, T/C [15] was 47.4% and the viability, T/C [16] was 43.9%. The viability, T/C [3] was 90.8%, the viability, T/C [4] was 111% and the viability, T/C [17] was 142%. The viability, T/C [18] was 66.6%, the viability, T/C [19] was 46.6% and the viability, T/C [20] was 37.1%. The viability, T/C [5] was 118%, the viability, T/C [6] was 122% and the viability, T/C [21] was 124%. It also gave a viability, T/C [22] of 63.2%, a viability, T/C [23] of 54% and a viability, T/C [24] of 44.8%. For the same compound, the viability, T/C [7] was 95.3%, the viability, T/C [8] was 112% and the viability, T/C [25] was 99.6%. For the same compound, the viability, T/C [26] was 68.5%, the viability, T/C [27] was 46.2% and the viability, T/C [28] was 40%. The viability, T/C [9] was 103%, the viability, T/C [10] was 107% and the viability, T/C [29] was 104%. The viability, T/C [30] was 60.6%, the viability, T/C [31] was 53.1% and the viability, T/C [32] was 46.2%. The viability, T/C [11] was 96.9%, the viability, T/C [12] was 105% and the viability, T/C [33] was 99.9%. It also gave a viability, T/C [34] of 66.8%, a viability, T/C [35] of 53.1% and a viability, T/C [36] of 40.8%.
